{"source": "patent EP1103545B1", "about": "“2-(3,5-Bis-trifluoromethyl-phenyl)-N-methyl-N-(6-morpholin-4-yl-4-o-tolyl-pyridin-3-yl)-isobutyramide” (F. HOFFMANN-LA ROCHE AG, priority 1999, dated 2001)", "key": {"[1]": {"tested_on": "emesis induced in Ferets", "experiment": "Emesis induced by various emetogens", "type": "in vivo"}, "[2]": {"biological_target": "T1, recombinant human NK1 receptor (Homo sapiens, UniProt P25103)", "T1 construct": "expressed in transfected cells; host or cells: CHO cells", "T1 sequence (P25103 whole entry)": "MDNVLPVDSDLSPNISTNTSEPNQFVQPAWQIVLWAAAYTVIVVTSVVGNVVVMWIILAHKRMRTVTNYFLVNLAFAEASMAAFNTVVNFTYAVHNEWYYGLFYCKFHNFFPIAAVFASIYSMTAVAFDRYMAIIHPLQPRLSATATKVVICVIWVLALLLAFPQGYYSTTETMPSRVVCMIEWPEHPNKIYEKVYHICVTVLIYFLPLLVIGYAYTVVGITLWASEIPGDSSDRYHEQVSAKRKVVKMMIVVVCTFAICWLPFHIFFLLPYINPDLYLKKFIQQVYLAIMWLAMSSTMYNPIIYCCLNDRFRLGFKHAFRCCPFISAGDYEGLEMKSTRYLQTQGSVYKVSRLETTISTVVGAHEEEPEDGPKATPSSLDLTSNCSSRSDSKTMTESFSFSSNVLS", "experiment": "Substance P induced Ca2+ influx in CHO cells (FLIPR), Schild analysis", "type": "cell-based", "source_text": "The activity in vitro was examined by studying its effect on substance P induced Ca^2+ influxes in CHO cells expressing the recombinant human NK1 receptor. In these cells, substance P causes a concentration dependent influx of Ca^2+ which can be measured using FLIPR technology."}, "[3]": {"tested_on": "motion sickness in the suncus murinus", "experiment": "Model of motion sickness", "type": "in vivo", "details": "po"}, "[4]": {"biological_target": "NK3 receptors (Homo sapiens, UniProt P29371)", "sequence (P29371 whole entry)": "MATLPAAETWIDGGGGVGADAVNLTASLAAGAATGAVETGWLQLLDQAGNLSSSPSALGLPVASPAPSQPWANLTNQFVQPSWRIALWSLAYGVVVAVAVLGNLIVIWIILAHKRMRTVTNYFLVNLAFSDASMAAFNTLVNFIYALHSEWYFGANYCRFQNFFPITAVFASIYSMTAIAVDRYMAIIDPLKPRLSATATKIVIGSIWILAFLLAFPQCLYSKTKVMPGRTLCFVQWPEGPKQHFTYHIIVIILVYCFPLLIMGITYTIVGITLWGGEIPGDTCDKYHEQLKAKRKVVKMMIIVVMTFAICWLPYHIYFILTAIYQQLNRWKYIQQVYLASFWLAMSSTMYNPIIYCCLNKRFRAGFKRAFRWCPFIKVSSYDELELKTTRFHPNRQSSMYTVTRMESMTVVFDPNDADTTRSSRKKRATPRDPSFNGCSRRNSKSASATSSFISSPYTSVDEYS", "details": "binding"}, "[5]": {"tested_on": "foot-tapping behaviour induced in Gerbils", "experiment": "Foot-tapping behaviour induced by i.c.v. injection of an NK1 receptor agonist", "type": "in vivo"}, "[6]": {"biological_target": "NK2 receptors (Homo sapiens, UniProt P21452)", "sequence (P21452 whole entry)": "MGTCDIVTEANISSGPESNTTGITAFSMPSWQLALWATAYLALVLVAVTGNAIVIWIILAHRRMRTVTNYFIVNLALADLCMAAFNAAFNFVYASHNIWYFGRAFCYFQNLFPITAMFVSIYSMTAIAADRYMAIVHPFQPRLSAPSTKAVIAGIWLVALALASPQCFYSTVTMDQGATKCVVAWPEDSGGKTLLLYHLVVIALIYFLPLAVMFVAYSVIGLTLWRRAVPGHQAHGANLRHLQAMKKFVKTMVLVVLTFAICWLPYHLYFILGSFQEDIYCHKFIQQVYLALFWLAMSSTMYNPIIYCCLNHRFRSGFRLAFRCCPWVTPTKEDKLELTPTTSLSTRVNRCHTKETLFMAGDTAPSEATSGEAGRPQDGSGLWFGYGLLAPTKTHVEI", "details": "binding"}}, "data": [{"smiles": "Cc1ccccc1-c1cc(N2CCOCC2)ncc1N(C)C(=O)C(C)(C)c1cc(C(F)(F)F)cc(C(F)(F)F)c1", "note": "[compound of formula I, 2-(3,5-Bis-trifluoromethyl-phenyl)-N-methyl-N-(6-morpholin-4-yl-4-o-tolyl-pyridin-3-yl)-isobutyramide]", "values": [{"measurement": "emesis induced by all emetogens", "setting": "[1]; 0.3 mg/kg p.o. 2 hours before emetogen (apomorphine, morphine, ipecacuanha, cisplatin, CuSO4)", "value": "completely blocked"}, {"measurement": "ED50", "setting": "[1]; Mustela putorius, po, apomorphine-induced emesis", "value": 0.1, "unit": "mg/kg"}, {"measurement": "slope of the Schild regression", "setting": "[2]", "value": 1.1}, {"measurement": "Kb", "setting": "[2]; Schild plot, read-out: antagonist affinity (pA2) (converted)", "value": 1.26, "unit": "nM"}, {"measurement": "selectivity for the NK1 receptor compared to over 50 other binding sites", "value": "over 2 orders of magnitude"}, {"measurement": "ED50", "setting": "[3]", "value": 0.2, "unit": "mg/kg"}, {"measurement": "selectivity for the NK1 receptor compared to NK3 receptors", "setting": "[4]", "value": "over 2 orders of magnitude"}, {"measurement": "total plasma concentration required to completely block the foot-tapping behaviour", "setting": "[5]; Gerbils", "value": 10, "unit": "ng/mL"}, {"measurement": "functional half life", "setting": "[5]; Gerbils, persistence of antagonism of foot-tapping", "value": 8, "unit": "h"}, {"measurement": "ED50", "setting": "[5]; Meriones unguiculatus, po, read-out: dose calculated to inhibit 50 % of the foot-tapping behaviour", "value": 0.2, "unit": "mg/kg"}, {"measurement": "selectivity for the NK1 receptor compared to NK2 receptors", "setting": "[6]", "value": "over 2 orders of magnitude"}]}]}
